The values below come from patent US20250283872A1, “EXPRESSION SYSTEMS FOR THE ALPHA2ALPHA5BETA2 NICOTINIC ACETYLCHOLINE RECEPTOR AND METHODS OF USE THEREOF” (Janssen Pharmaceutica NV, priority 2021, published 2025).

One test concerns the target α2α5β2 nAChR (Homo sapiens, UniProt P17787+P30532+Q15822). As for the experimental part:
(§1) Then transfer the plate to 30° C. with 5% CO2 in a humidified atmosphere for 24-48 hours.

The next test has as its target α2β2 nAChR (Homo sapiens, UniProt P17787+Q15822). Conditions: HEK293T cells; co-transfection with FAM163B or TMIE (plus SAT1+CHAT) versus SAT1+CHAT. How it is done: as §1

Each structure is given as a SMILES string.

Chain of α2α5β2 nAChR (Q15822 27-529): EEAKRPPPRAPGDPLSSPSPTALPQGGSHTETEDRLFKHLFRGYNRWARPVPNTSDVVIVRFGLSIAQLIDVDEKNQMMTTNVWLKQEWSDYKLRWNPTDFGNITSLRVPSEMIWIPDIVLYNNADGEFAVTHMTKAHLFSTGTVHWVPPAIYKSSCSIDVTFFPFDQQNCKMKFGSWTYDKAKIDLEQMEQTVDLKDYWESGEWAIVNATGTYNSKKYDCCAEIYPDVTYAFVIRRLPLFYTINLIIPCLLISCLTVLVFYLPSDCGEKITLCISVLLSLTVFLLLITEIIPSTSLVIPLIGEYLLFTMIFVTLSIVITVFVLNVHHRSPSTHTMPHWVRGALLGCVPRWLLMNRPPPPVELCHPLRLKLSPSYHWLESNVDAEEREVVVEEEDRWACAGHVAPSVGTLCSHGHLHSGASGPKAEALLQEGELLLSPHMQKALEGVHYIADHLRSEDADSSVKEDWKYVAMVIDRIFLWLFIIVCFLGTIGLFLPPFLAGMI
Chain of α2α5β2 nAChR (P30532 23-468): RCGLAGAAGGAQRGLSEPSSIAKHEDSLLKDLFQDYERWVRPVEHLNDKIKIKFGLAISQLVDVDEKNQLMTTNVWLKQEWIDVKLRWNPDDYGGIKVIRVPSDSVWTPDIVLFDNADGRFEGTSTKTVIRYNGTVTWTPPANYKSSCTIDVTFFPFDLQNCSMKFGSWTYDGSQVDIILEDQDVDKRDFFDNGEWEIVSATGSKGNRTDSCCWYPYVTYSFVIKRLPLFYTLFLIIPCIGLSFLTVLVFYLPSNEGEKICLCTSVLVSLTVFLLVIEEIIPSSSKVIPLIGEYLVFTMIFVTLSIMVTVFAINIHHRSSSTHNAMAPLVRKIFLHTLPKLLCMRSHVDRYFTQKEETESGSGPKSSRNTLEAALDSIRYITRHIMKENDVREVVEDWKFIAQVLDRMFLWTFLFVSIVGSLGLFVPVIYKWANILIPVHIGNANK
Chain of α2α5β2 nAChR (P17787 26-502): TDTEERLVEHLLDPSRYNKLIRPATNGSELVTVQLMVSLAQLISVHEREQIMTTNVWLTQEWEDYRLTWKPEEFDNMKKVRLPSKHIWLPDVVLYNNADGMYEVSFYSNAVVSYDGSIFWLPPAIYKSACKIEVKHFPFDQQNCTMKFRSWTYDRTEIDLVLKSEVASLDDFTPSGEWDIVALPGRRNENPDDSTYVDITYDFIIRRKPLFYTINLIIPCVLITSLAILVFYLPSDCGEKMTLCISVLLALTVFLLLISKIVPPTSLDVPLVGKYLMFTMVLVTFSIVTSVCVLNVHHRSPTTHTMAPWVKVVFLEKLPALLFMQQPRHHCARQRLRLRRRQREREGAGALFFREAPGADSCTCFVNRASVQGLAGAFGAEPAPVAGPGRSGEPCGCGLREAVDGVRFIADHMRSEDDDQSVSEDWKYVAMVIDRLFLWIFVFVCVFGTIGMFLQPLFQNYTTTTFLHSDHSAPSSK
Chain of α2β2 nAChR (Q15822 27-529): as the sequence (Q15822 27-529) above
Chain of α2β2 nAChR (P17787 26-502): as the sequence (P17787 26-502) above

As for `CN1CCCC1c1cccnc1` (stereo not drawn) [nicotine, Nicotine], the “nicotine potency (nicotine-evoked calcium flux, FIG. 2)” value at α2α5β2 nAChR (HEK293T cells, co-transfection with FAM163B or TMIE (plus SAT1+CHAT) versus SAT1+CHAT) is on record as “left shifted”; on α2β2 nAChR it was “left shifted”. For the same molecule, the “EC80 (nicotine-evoked α2α5β2 nAChR mediated calcium flux)” value at α2α5β2 nAChR (recombinant cells, Ca5 dye, FLIPR TETRA) is 1000 nM.
